Laboratory results: ChEMBL document CHEMBL1201862, “PubChem BioAssay data set” (2004)
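1) Cells in 96-well plates. 2) Compound, 48 h, 5 concentrations. 3) Linear interpolation between surrounding doses. 4) Unreached endpoint = highest concentration. Abbreviation: GI50, concentration required for 50% inhibition of growth.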 Activity calls are given as the source filed them. No stated cut-off is given here; in the data, active = GI50 up to about 1.1 µM and inactive = higher. Residues, ends and D or L forms follow the SMILES beside them. *: point of attachment. Cbz = O=C(OCc1ccccc1)*

How the values were obtained:
Experiment in all cases: NCI tumour cell line growth inhibition, 48 h
MDA-N = system: MDA-N
BT-549 = system: BT-549
T47D = system: T47D
DLD-1 = system: DLD-1
KM-20L2 = system: KM-20L2
DMS-273 = system: DMS-273
XF498 = system: XF498
HOP-18 = system: HOP-18

Structure (SMILES)	GI50 (MDA-N)	GI50 (BT-549)	GI50 (T47D)	GI50 (DLD-1)	GI50 (KM-20L2)	GI50 (DMS-273)	GI50 (XF498)	GI50 (HOP-18)
COc1ncc(C=C(C#N)C#N)c(OC)n1	26.9 µM (inactive)	33.7 µM (inactive)	> 100 µM (inactive)					
CCOC(=O)N1CCN(Cc2cc(=O)n3ccc(C)cc3n2)CC1	> 100 µM (inactive)	> 100 µM (inactive)	> 100 µM (inactive)					
Cc1nc2c(o1)/C(=N\c1ccccc1)c1nc(C)oc1/C2=N/c1ccccc1				25.5 µM (inactive)	25.5 µM (inactive)	20 µM (inactive)	18 µM (inactive)	17.3 µM (inactive)
CCOc1ccc2ccccc2c1NC1=NCCO1			29.7 µM (inactive)					
CN1CCCN2CCN(C)CCN(CC1)CC2	> 100 µM (inactive)	> 100 µM (inactive)	> 100 µM (inactive)					
O=C1C=C(OCCCCl)C(=O)c2c(O)ccc(O)c21	0.184 µM (active)	1.09 µM (active)	2.19 µM (inactive)					
CCOC(=O)/C=C/C1=C(Br)[C@@]2(C)CC[C@@H]3c4ccc(O)cc4CC[C@H]3[C@@H]2C1	13.8 µM (inactive)	14.3 µM (inactive)	4.86 µM (inactive)					
C[C@@H]1C[C@](O)([C@@H](C)Cl)C(=O)O[C@@H]2CCN3CC=C(COC(=O)[C@]1(C)O)[C@H]23	> 100 µM (inactive)	> 100 µM (inactive)	> 100 µM (inactive)					
Oc1c(N2CCCCC2)cc(-c2cc(N3CCCCC3)c(O)c3ccccc23)c2ccccc12	17 µM (inactive)		32.4 µM (inactive)					
O=[N+]([O-])c1ccc(N/N=C(\c2ccccc2)c2ccccn2)nc1	20 µM (inactive)	15.5 µM (inactive)	0.0107 µM (active)					
COc1ccc(OC)c2c1C=CC(Br)=CC2	0.229 µM (active)	0.303 µM (active)	0.192 µM (active)					
O=[N+]([O-])C1=Cc2c(O)ccc(O)c2C2c3ccccc3NC12 (stereo not given)	18.3 µM (inactive)	12.3 µM (inactive)	7.03 µM (inactive)					
COc1ccc(-c2cc(O)c3cc(OC)ccc3n2)cc1				> 100 µM (inactive)	> 100 µM (inactive)			> 100 µM (inactive)
Cn1c(=O)[nH]c2[nH]c3ccccc3c2c1=O	> 100 µM (inactive)	> 100 µM (inactive)	> 100 µM (inactive)					
Cc1cn(C2CC(O)C(COP(=O)(O)OC3CC(n4c[n+]([BH2-]C#N)c5c(=O)[nH]c(N)nc54)OC3CO)O2)c(=O)[nH]c1=O (stereo not given)	> 100 µM (inactive)	> 100 µM (inactive)	> 100 µM (inactive)					
NCCN1C(=O)C2C3c4ccccc4C(c4ccccc43)C2C1=O (stereo not given)				> 100 µM (inactive)	> 100 µM (inactive)	> 100 µM (inactive)		> 100 µM (inactive)
COc1c(C)c(OC)c2c(c1O)[C@@H]1[C@@H]3Cc4c(OC)c(C)c(OC)c(O)c4[C@H](CNC(=O)c4ccc5ccccc5n4)N3[C@@H](C#N)[C@H](C2)N1C	0.000807 µM (active)	0.000377 µM (active)	0.000277 µM (active)					
NNC(=O)c1ccccc1NC(=O)/C(=C/c1ccccc1)NC(=O)c1ccccc1	72.4 µM (inactive)	60.4 µM (inactive)	> 100 µM (inactive)					
CCOC(=O)C(NC(=O)CC)(Nc1cc(C)on1)C(F)(F)F (stereo not given)	> 100 µM (inactive)	> 100 µM (inactive)	> 100 µM (inactive)					
O=C(c1ccccc1)N1CCC(Nc2cccnc2)O1 (stereo not given)	> 100 µM (inactive)	> 100 µM (inactive)	92.9 µM (inactive)					
[N-]=[N+]=NC(CCl)c1cn([C@H]2C[C@H](O)[C@@H](CO)O2)c(=O)[nH]c1=O (stereo not given in full)				> 100 µM (inactive)	> 100 µM (inactive)	> 100 µM (inactive)		> 100 µM (inactive)

Structure (SMILES)	GI50 (MDA-N)	GI50 (BT-549)	GI50 (T47D)	GI50 (DLD-1)	GI50 (KM-20L2)	GI50 (DMS-273)	GI50 (XF498)	GI50 (HOP-18)
CCOC(=O)C1Cc2[nH]c3ccccc3c2C(C)C1C (stereo not given)				15.8 µM (inactive)	16.8 µM (inactive)	15.1 µM (inactive)	16.7 µM (inactive)	
CC1C2(C)OC(=N)C(C#N)(C(C)O2)C1(C#N)C#N (stereo not given)	18.6 µM (inactive)	31.6 µM (inactive)	30.1 µM (inactive)					
CCOC(=O)C(C(N)=O)C1=Nc2cc([N+](=O)[O-])ccc2N/C1=C\C(=O)c1ccccc1 (stereo not given)	18.7 µM (inactive)	21.7 µM (inactive)	26 µM (inactive)					
CC(Cc1ccccc1)N(C)Cc1nc(C2CCC([N+](=O)[O-])O2)no1 (stereo not given)			19.1 µM (inactive)					
O=C1c2ccccc2C(=O)c2[nH]cnc21				27 µM (inactive)		46.8 µM (inactive)	32.7 µM (inactive)	
COC(=O)C(=O)C(C(=O)C(=O)Nc1ccc([N+](=O)[O-])cc1C#N)c1nc2ccc([N+](=O)[O-])cc2nc1O (stereo not given)				> 100 µM (inactive)	> 100 µM (inactive)	> 100 µM (inactive)		34.8 µM (inactive)
O=C(O)c1cccc(/N=N/c2c(S(=O)(=O)O)ccc3c2C(=O)c2ccccc2C3=O)c1O	> 100 µM (inactive)	> 100 µM (inactive)	> 100 µM (inactive)					
Cc1ccc(S(=O)(=O)N(CC(O)COc2ccccc2)c2c(F)c(F)c(F)c(F)c2F)cc1 (stereo not given)	15.6 µM (inactive)	13.5 µM (inactive)	18 µM (inactive)					
CO[C@]12CCC(=O)N1C=Cc1c2[nH]c2ccccc12				> 100 µM (inactive)				> 100 µM (inactive)
CS(=O)(=O)N(CCC#N)c1ccc(/C=N/NC(=O)CC(=O)Nc2cccc(Cl)c2)cc1				> 100 µM (inactive)	> 100 µM (inactive)	> 100 µM (inactive)		> 100 µM (inactive)
COc1ccc2oc(=O)c(-c3csc(C)n3)cc2c1		15.8 µM (inactive)						
C[C@H](CCC(=O)NCCS(=O)(=O)O)[C@H]1CC[C@H]2[C@@H]3[C@H](O)C[C@@H]4C[C@H](O)CC[C@]4(C)[C@H]3CC[C@]12C	> 100 µM (inactive)	> 100 µM (inactive)	> 100 µM (inactive)					
Cc1ccc(Nc2nc(N)nc3c2ncn3C2OC(CO)C(O)C2O)cc1 (stereo not given)	> 100 µM (inactive)		> 100 µM (inactive)					
O=C1C[C@@H]2[C@@H](c3ccccc3)[C@@H]3C(=O)c4ccccc4NC(=O)[C@H]3[C@]2(O)c2ccccc2N1					> 100 µM (inactive)	> 100 µM (inactive)	> 100 µM (inactive)	
CC1CCc2c(sc3ncnc(N/N=C/c4ccc(Cl)c(Cl)c4)c23)C1 (stereo not given)				9.33 µM (inactive)	4.69 µM (inactive)	7.98 µM (inactive)		
CC(NC(=O)C(NC(=O)OCc1ccccc1)C(C)C)C(=O)NCC(=O)O (stereo not drawn) (Cbz-Val-Ala-Gly-OH; configuration not given here)	> 100 µM (inactive)	> 100 µM (inactive)	> 100 µM (inactive)					
N=C(N)c1ccc(/N=N/c2c(O)ccc3cc(O)ccc23)cc1		> 100 µM (inactive)						
C/C(Cl)=N/OC(=O)Nc1ccc(S(N)(=O)=O)c(C)c1	11.7 µM (inactive)	12.3 µM (inactive)	2.92 µM (inactive)					
CC(C)CC(C#CCCOC(=O)c1ccccc1)OC(=O)c1ccccc1 (stereo not given)	> 10 µM (inactive)	> 10 µM (inactive)	> 10 µM (inactive)					
COc1ccc(/N=C(/[N-]n2c(=O)c(C)nn(C)c2=S)N(c2ccc(OC)cc2)c2n[n+]3c(=O)c(C)nn(C)c3s2)cc1				> 100 µM (inactive)	> 100 µM (inactive)	> 100 µM (inactive)		> 100 µM (inactive)
COc1cc(C2c3cc4c(cc3[C@@H](NCCN3CCCCC3)C3COC(=O)[C@H]23)OCO4)cc(OC)c1O (stereo not given in full)				1.6 µM (inactive)	1.53 µM (inactive)	0.123 µM (active)		0.509 µM (active)

Structure (SMILES)	GI50 (MDA-N)	GI50 (BT-549)	GI50 (T47D)	GI50 (DLD-1)	GI50 (KM-20L2)	GI50 (DMS-273)	GI50 (XF498)	GI50 (HOP-18)
O=c1c2ccc(Cl)cc2oc2c(CNc3ccc(S(=O)(=O)Nc4nccs4)cc3)cccc12	> 100 µM (inactive)	> 100 µM (inactive)	> 100 µM (inactive)					
CCN1CCN=c2c3cc(OC)ccc3n3cnc4ccc1c2c43	0.256 µM (active)		0.39 µM (active)					
CC(=O)OC1c2ccccc2CCCCCCC12OCCO2 (stereo not given)				> 100 µM (inactive)	> 100 µM (inactive)			> 100 µM (inactive)
Cc1ccc(/C=C2\CCCC(CN3CCCCC3)C2=O)cc1 (stereo not given)	2.77 µM (inactive)	2.29 µM (inactive)	1.82 µM (inactive)					
O=C1Nc2ccccc2C1Cc1ccccc1 (stereo not given)	> 100 µM (inactive)		88.7 µM (inactive)					
Cc1nn(C(=O)c2ccc(Cl)cc2)c2c1C(c1cccc([N+](=O)[O-])c1)SC(=N)N2 (stereo not given)	> 10 µM (inactive)	> 10 µM (inactive)	> 10 µM (inactive)					
c1ccc(-c2nc(-c3ccccc3)c(-c3ccccc3)[nH]2)cc1	> 88.7 µM (inactive)	> 100 µM (inactive)	42.3 µM (inactive)					
COc1ccc(/C=C2/CCS(=O)(=O)c3ccc(C)cc3C2=O)cc1OC	11.9 µM (inactive)	9.27 µM (inactive)	13.2 µM (inactive)					
Cc1cn(C2CC(N)C(C(=O)O)O2)c(=O)[nH]c1=O (stereo not given)	> 100 µM (inactive)	> 100 µM (inactive)						
CO[C@]12C[C@@H](CNC(=O)c3cc(Br)c[nH]3)O[C@H]1NC(=O)N2		> 100 µM (inactive)	> 100 µM (inactive)					
Nc1nc(-c2ccco2)cc(-c2ccc(CO)o2)n1					> 100 µM (inactive)	> 100 µM (inactive)	> 100 µM (inactive)	
O=C1CCCC/C1=C\c1ccc(Br)cc1	16.3 µM (inactive)	14.5 µM (inactive)	23.3 µM (inactive)					
CCCCCCCCCCCC/C=C\CC[C@@H](O)[C@H](O)CC[C@H](O)[C@@H]1CC[C@@H](CCCCCCCC2=C[C@H](C)OC2=O)O1 [GIGANTRIONENIN]	3.91 µM (inactive)	0.00819 µM (active)	3.43 µM (inactive)					
COC(=O)c1ccc2c(c1)S/C(=C/c1ccc3ccc4cccc5ccc1c3c45)S2	52.5 µM (inactive)	35.8 µM (inactive)	> 100 µM (inactive)					
COc1nc(N)nc2c1ncn2C1CC(O)C(CO)O1 (stereo not given)		> 100 µM (inactive)	> 100 µM (inactive)					
CCOC(=O)CSc1nc(N)c2c(-c3ccccc3)c3c(nc2n1)CCCC3	> 100 µM (inactive)	> 100 µM (inactive)	> 100 µM (inactive)					
COC(=O)[C@H](Cc1c[nH]c2ccccc12)NC(=O)OCC1OC(n2cc(C)c(=O)[nH]c2=O)CC1N=[N+]=[N-] (stereo not given in full)	> 100 µM (inactive)	> 100 µM (inactive)	> 100 µM (inactive)					
N=C(N)c1ccc(/C=C/c2ccc(C(=N)N)cc2)cc1	> 100 µM (inactive)	> 100 µM (inactive)	> 100 µM (inactive)					
CCN(CC)CCNc1c(OC)cc(C)c2sc3ccccc3c(=O)c12		11.7 µM (inactive)	11.4 µM (inactive)					
